Data published in ChEMBL document CHEMBL1177747, “Cytotoxic flavonoids as agonists of peroxisome proliferator-activated receptor gamma on human cervical and prostate cancer cells” (J Nat Prod, 2010).

What was measured:
[1] = molecular target: T1, Peroxisome proliferator-activated receptor gamma (Homo sapiens) (UniProt P37231); experiment: Binding affinity to human PPARgamma expressed in Escherichia coli BL21 assessed as binding constant by fluorescence quenching assay
T1 sequence (whole entry): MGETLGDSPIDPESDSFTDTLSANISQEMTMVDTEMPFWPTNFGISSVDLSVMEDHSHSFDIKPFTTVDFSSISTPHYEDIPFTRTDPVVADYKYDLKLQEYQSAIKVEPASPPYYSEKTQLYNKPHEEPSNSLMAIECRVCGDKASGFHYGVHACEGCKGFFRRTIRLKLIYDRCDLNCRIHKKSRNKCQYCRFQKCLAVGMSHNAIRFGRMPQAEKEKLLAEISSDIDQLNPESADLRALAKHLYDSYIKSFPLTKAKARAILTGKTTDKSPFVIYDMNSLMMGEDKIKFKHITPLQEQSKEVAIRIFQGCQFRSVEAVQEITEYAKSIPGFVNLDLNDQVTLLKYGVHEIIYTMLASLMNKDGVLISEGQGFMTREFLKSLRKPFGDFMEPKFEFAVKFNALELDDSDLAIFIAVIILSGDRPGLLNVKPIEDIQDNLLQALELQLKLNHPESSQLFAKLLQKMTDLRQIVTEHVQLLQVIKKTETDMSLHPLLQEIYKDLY

A549 = experiment: Cytotoxicity against human A549 cells after 48 hrs by MTT assay; format: functional, cell-based; details: A549, 48 h
PC-3 = experiment: Cytotoxicity against human PC3 cells after 48 hrs by MTT assay; format: functional, cell-based; details: PC-3, 48 h
MCF7 = experiment: Cytotoxicity against human MCF7 cells after 48 hrs by MTT assay; format: functional, cell-based; details: MCF7, 48 h
MDA-MB-231 = experiment: Cytotoxicity against human MDA-MB-231 cells after 48 hrs by MTT assay; format: functional, cell-based; details: MDA-MB-231, 48 h
[2] = molecular target: T1, Peroxisome proliferator-activated receptor gamma (Homo sapiens); experiment: Agonist activity at human PPARgamma expressed in Escherichia coli BL21 assessed as stimulation of binding between receptor and steroid receptor coactivator-1 at 320 uM by ELISA relative to untreated control
HeLa = experiment: Cytotoxicity against human HeLa cells after 48 hrs by MTT assay; format: functional, cell-based
[3] = molecular target: T1, Peroxisome proliferator-activated receptor gamma (Homo sapiens); experiment: Agonist activity at human PPARgamma expressed in Escherichia coli BL21 assessed as stimulation of binding between receptor and steroid receptor coactivator-1 by ELISA

| Structure (SMILES) | K [1] | IC50 (A549) | IC50 (PC-3) | IC50 (MCF7) | IC50 (MDA-MB-231) | fold change (FC) [2] | IC50 (HeLa) | Activity [3] |
| --- | --- | --- | --- | --- | --- | --- | --- | --- |
| COc1ccc2c(c1)c(CC(=O)O)c(C)n2C(=O)c1ccc(Cl)cc1 [INDOMETHACIN] | 3.39 ×10⁵ /M | > 100 µM | > 100 µM | > 100 µM | > 100 µM | 2 | 50 µM |  |
| O=c1c(O)c(-c2ccccc2)oc2ccc(O)cc12 | 2.36 ×10⁵ /M | 100 µM | 50 µM | > 100 µM | > 100 µM | 7 | 12.5 µM | Dose-dependent effect |
